Results reported in patent US8030443B2, “Squamous cell carcinoma antigen-derived peptide binding to HLA-A24 molecule” (Kurume University, priority 2005, dated 2011).

System: PBMCs from HLA-A24^+ cancer patients and HDs
Assay: Induction of peptide-specific CTLs from PBMCs, IFN-γ ELISA against peptide-pulsed C1R-A24 cells
Format: cell-based, human
Conditions: for Total: healthy donors with induction of peptide-specific CTLs / donors tested: 8 HLA-A24^+ healthy donors; for Total: healthy donors with induction of peptide-specific CTLs / donors tested / Total: cancer patients with induction of peptide-specific CTLs / patients tested: positive when more than 50 pg/ml IFN-γ with p<0.05; for Total: cancer patients with induction of peptide-specific CTLs / patients tested: 20 HLA-A24^+ cancer patients; for IFN-γ Production: HIV peptide background subtracted, only significant values shown, — otherwise
Description: PBMCs from HLA-A24^+ cancer patients and HDs were used for the CTL induction assay. For the induction of peptide-specific CTLs, PBMCs (1.5×10^5 cells/well) were incubated with 10 μg/ml of each peptide in four different wells of a 96-well microculture plate (Nunc) in 200 μl of culture medium containing interleukin (IL)-2, as reported previously (Non-Patent Literature 18). Every 3 or 4 days, half the culture medium was removed and replaced with new medium containing the corresponding peptide (20 μg/ml) and 100 U/ml IL-2. On the 14th day, the cells from each well were independently harvested, washed, separated into four wells, and tested for their ability to produce interferon (IFN)-γ in response to C1R-A24 cells pulsed with a corresponding peptide or a negative control HIV peptide in the duplicate assays. C1R-A24 is an HLA-A2402-expressing subline of C1R lymphoma (Dr. M. Takiguchi, Kumamoto University, Japan). After an 18-h incubation of C1RA-24, the supernatant was collected, and the level of IFN-γ was determined by ELISA.
Whether or not the SCCA107, SCCA112, SCCA215, and SCCA286 peptides had the potential to induce peptide-specific CTLs from the PBMCs of 20 HLA-A24^+ cancer patients and 8 HLA-A24^+ healthy donors was investigated. The group of twenty cancer patients consisted of 4 esophageal SCC patients, 4 cervical SCC patients, 4 lung cancer patients (2 adenocarcinomas, one small cell carcinoma, and one squamous cell carcinoma), 4 gastric adenocarcinoma patients, and 4 colon adenocarcinoma patients. The assay was carried out in quadruplicate. The cultured cells in one well were separated into 4 wells, and two wells were used for the SCCA peptide-pulsed C1R-A24 cells, and the other two were used for the HIV peptide-pulsed C1R-A24 cells.

## LFGEKTYLFL (SCCA 107-116 peptide) [SCCA-derived peptide, position 107-116]
  Total: healthy donors with induction of peptide-specific CTLs / donors tested: 1/8
  Total: cancer patients with induction of peptide-specific CTLs / patients tested: 3/20
Listed as SCCA107
  Total: cancer patients with induction of peptide-specific CTLs / patients tested: 3 of 20
PBMCs of HLA-A24^+ healthy donor 7
  IFN-γ Production: 259 pg/mL
PBMCs of HLA-A24^+ patient 2, Esophagus
  IFN-γ Production: 84 pg/mL
PBMCs of HLA-A24^+ patient 6, Cervix of uterus
  IFN-γ Production: 105 pg/mL
PBMCs of HLA-A24^+ patient 13, Stomach
  IFN-γ Production: 500 pg/mL

## RFKVEESYDL (SCCA 286-295 peptide) [SCCA-derived peptide, position 286-295]
  Total: healthy donors with induction of peptide-specific CTLs / donors tested: 0/8
  Total: cancer patients with induction of peptide-specific CTLs / patients tested: 3/20
Listed as SCCA286
  Total: cancer patients with induction of peptide-specific CTLs / patients tested: 3 of 20
PBMCs of HLA-A24^+ patient 4, Esophagus
  IFN-γ Production: 97 pg/mL
PBMCs of HLA-A24^+ patient 7, Cervix of uterus
  IFN-γ Production: 169 pg/mL
